Measured values taken from patent US9399649B2, “Compounds for treating spinal muscular atrophy” (PTC Therapeutics Inc., priority 2012, dated 2016).

How the values were obtained:
[1] = system: full length SMN2 minigene mRNA containing SMN2 exon 7; test: SMN2 minigene mRNA splicing RT-qPCR assay in cultured cells; assay type: cell-based, human; conditions: Homo sapiens, HEK293-H; HEK293H cells stably transfected with SMN2-A minigene, 24 hours, 7-point concentration curve; concentration giving 1.5-fold full length SMN2 mRNA vs vehicle; read-out: EC1.5x for production of full length SMN2 mRNA
Outline: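 HEK293H cells stably carrying SMN2-A minigene treated 24 h (37 °C) with compound, 7-point 3.16-fold dilution, duplicates. Multiplex RT-qPCR on lysate with exon 7/luciferase primers and exon 7–8 junction probe (minigene-specific). Full-length transcript normalised to GAPDH by modified ΔΔCt, expressed relative to vehicle-treated cells.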

Smn protein = Smn protein assay in cultured cells (SMN HTRF); assay type: cell-based, human; conditions: SMA patient fibroblast cells (GM03813), 48 hours; for maximum fold (Fold) increase of Smn protein: 7-point concentration data, relative to vehicle control; for EC1.5x for Smn protein expression: 7-point concentration curve, concentration producing 1.5 times Smn protein vs DMSO vehicle
Outline: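 SMA patient fibroblasts, 5,000 per well in DMEM-10% FBS, exposed 48 h at 37° C. to a 7-point, 3.16-fold compound series in triplicate. RIPA lysates read by SMN HTRF (665/620 nm, overnight at room temperature); ΔF over blank expressed as fold of vehicle.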

C[C@@H]1CN(c2ccc3cc(-c4ccc5c(c4)OCCO5)oc(=O)c3c2)CCN1 [Cpd 37, 3-(2,3-dihydro-1,4-benzodioxin-6-yl)-7-[(3R)-3-methylpiperazin-1-yl]-1H-isochromen-1-one]
EC (1.5-fold) [1]: 1 to 3 µM
maximum fold (Fold) increase of Smn protein (Smn protein): * (A maximum fold increase of ≦1.2 is indicated by one star (*))
melting point: 175 to 177 °C

CN1CCN(c2ccc3cc(-c4ccc5c(c4)OCCO5)oc(=O)c3c2)CC1 [Cpd 38, 3-(2,3-dihydro-1,4-benzodioxin-6-yl)-7-(4-methylpiperazin-1-yl)-1H-isochromen-1-one]
EC (1.5-fold) [1]: 3 to 30 µM
maximum fold (Fold) increase of Smn protein (Smn protein): * (A maximum fold increase of ≦1.2 is indicated by one star (*))
melting point: 163 to 165 °C

C[C@@H]1CN(c2ccc3cc(-c4ccc5c(c4)OCCO5)oc(=O)c3c2)C[C@H](C)N1 [Cpd 39, 3-(2,3-dihydro-1,4-benzodioxin-6-yl)-7-[(3R,5S)-3,5-dimethylpiperazin-1-yl]-1H-isochromen-1-one]
EC (1.5-fold) [1]: 1 to 3 µM
maximum fold (Fold) increase of Smn protein (Smn protein): * (A maximum fold increase of ≦1.2 is indicated by one star (*))
melting point: 218 to 220 °C

C[C@H]1CN(c2ccc3cc(-c4ccc5c(c4)OCO5)oc(=O)c3c2)CCN1 [Cpd 40, 3-(1,3-benzodioxol-5-yl)-7-[(3S)-3-methylpiperazin-1-yl]-1H-isochromen-1-one]
EC (1.5-fold) [1]: 0.3 to 1 µM
maximum fold (Fold) increase of Smn protein (Smn protein): * (A maximum fold increase of ≦1.2 is indicated by one star (*))
melting point: 248 to 250 °C

C[C@H]1CN(c2ccc3cc(-c4ccc(O)c(O)c4)oc(=O)c3c2)CCN1 [Cpd 41, 3-(3,4-dihydroxyphenyl)-7-[(3S)-3-methylpiperazin-1-yl]-1H-isochromen-1-one]
EC (1.5-fold) [1]: 0.3 to 1 µM
maximum fold (Fold) increase of Smn protein (Smn protein): *** (a fold increase between >1.35 and ≦1.5 is indicated by three stars (***))
melting point: 220 to 222 °C

CCOc1ccc(-c2cc3ccc(N4CCN[C@@H](C)C4)cc3c(=O)o2)cc1 [Cpd 42, 3-(4-ethoxyphenyl)-7-[(3S)-3-methylpiperazin-1-yl]-1H-isochromen-1-one]
EC (1.5-fold) [1]: 0.1 to 0.3 µM
maximum fold (Fold) increase of Smn protein (Smn protein): ** (a fold increase between >1.2 and ≦1.35 is indicated by two stars (**))
melting point: 239 to 240 °C

COc1ccc(-c2cc3ccc(N4CCN[C@@H](C)C4)cc3c(=O)o2)cc1F [Cpd 43, 3-(3-fluoro-4-methoxyphenyl)-7-[(3S)-3-methylpiperazin-1-yl]-1H-isochromen-1-one]
EC (1.5-fold) [1]: ≤ 0.1 µM
EC1.5x for Smn protein expression (Smn protein): **** (an EC1.5×≦0.3 nM is indicated by four stars (****))
maximum fold (Fold) increase of Smn protein (Smn protein): *** (a fold increase between >1.35 and ≦1.5 is indicated by three stars (***))
melting point: 209 to 211 °C

C[C@H]1CN(c2ccc3cc(-c4cccc(O)c4)oc(=O)c3c2)CCN1 [Cpd 44, 3-(3-hydroxyphenyl)-7-[(3S)-3-methylpiperazin-1-yl]-1H-isochromen-1-one]
EC (1.5-fold) [1]: 3 to 30 µM
maximum fold (Fold) increase of Smn protein (Smn protein): ** (a fold increase between >1.2 and ≦1.35 is indicated by two stars (**))
melting point: 256 to 258 °C

COc1ccc(-c2cc3ccc(N4CCN[C@@H](C)C4)cc3c(=O)o2)c(F)c1 [Cpd 45, 3-(2-fluoro-4-methoxyphenyl)-7-[(3S)-3-methylpiperazin-1-yl]-1H-isochromen-1-one]
EC (1.5-fold) [1]: 0.1 to 0.3 µM
maximum fold (Fold) increase of Smn protein (Smn protein): *** (a fold increase between >1.35 and ≦1.5 is indicated by three stars (***))
melting point: 167 to 168 °C

COc1ccc(-c2cc3ccc(N4CCN[C@@H](C)C4)cc3c(=O)o2)cc1Cl [Cpd 46, 3-(3-chloro-4-methoxyphenyl)-7-[(3S)-3-methylpiperazin-1-yl]-1H-isochromen-1-one]
EC (1.5-fold) [1]: 0.1 to 0.3 µM
EC1.5x for Smn protein expression (Smn protein): *** (an EC1.5× between >0.3 nM and ≦1 nM is indicated by three stars (***))
maximum fold (Fold) increase of Smn protein (Smn protein): **** (a fold increase between >1.5 and ≦1.65 is indicated by four stars (****))
melting point: 187 to 189 °C

COc1cc(-c2cc3ccc(N4CCN[C@@H](C)C4)cc3c(=O)o2)ccc1F [Cpd 47, 3-(4-fluoro-3-methoxyphenyl)-7-[(3S)-3-methylpiperazin-1-yl]-1H-isochromen-1-one]
EC (1.5-fold) [1]: 3 to 30 µM
maximum fold (Fold) increase of Smn protein (Smn protein): * (A maximum fold increase of ≦1.2 is indicated by one star (*))
melting point: 118 to 120 °C

COc1ccc(F)cc1-c1cc2ccc(N3CCN[C@@H](C)C3)cc2c(=O)o1 [Cpd 48, 3-(5-fluoro-2-methoxyphenyl)-7-[(3S)-3-methylpiperazin-1-yl]-1H-isochromen-1-one]
EC (1.5-fold) [1]: 0.3 to 1 µM
maximum fold (Fold) increase of Smn protein (Smn protein): * (A maximum fold increase of ≦1.2 is indicated by one star (*))
melting point: 115 to 117 °C

COc1c(F)cc(-c2cc3ccc(N4CCN[C@@H](C)C4)cc3c(=O)o2)cc1F [Cpd 49, 3-(3,5-difluoro-4-methoxyphenyl)-7-[(3S)-3-methylpiperazin-1-yl]-1H-isochromen-1-one]
EC (1.5-fold) [1]: 3 to 30 µM
maximum fold (Fold) increase of Smn protein (Smn protein): * (A maximum fold increase of ≦1.2 is indicated by one star (*))
melting point: 170 to 173 °C

COc1ccc(-c2cc3ccc(N4CCN[C@@H](C)C4)cc3c(=O)o2)c(OC)c1 [Cpd 50, 3-(2,4-dimethoxyphenyl)-7-[(3S)-3-methylpiperazin-1-yl]-1H-isochromen-1-one]
EC (1.5-fold) [1]: ≤ 0.1 µM
EC1.5x for Smn protein expression (Smn protein): ** (an EC1.5× between >1 μM, and ≦3 nM is indicated by two stars (**))
maximum fold (Fold) increase of Smn protein (Smn protein): *** (a fold increase between >1.35 and ≦1.5 is indicated by three stars (***))
melting point: 231 °C (dec.)

CCOc1ccc(-c2cc3ccc(N4CCNCC4)cc3c(=O)o2)cc1 [Cpd 51, 3-(4-ethoxyphenyl)-7-(piperazin-1-yl)-1H-isochromen-1-one]
EC (1.5-fold) [1]: 1 to 3 µM
maximum fold (Fold) increase of Smn protein (Smn protein): * (A maximum fold increase of ≦1.2 is indicated by one star (*))
melting point: 245 °C (dec.)

Cc1cc2cc(-c3cc4ccc(N5CCNCC5)cc4c(=O)o3)ccc2o1 [Cpd 52, 3-(2-methyl-1-benzofuran-5-yl)-7-(piperazin-1-yl)-1H-isochromen-1-one]
EC (1.5-fold) [1]: 0.1 to 0.3 µM
EC1.5x for Smn protein expression (Smn protein): * (An EC1.5× for Smn protein expression between >3 μM and <10 μM is indicated by one star (*))
maximum fold (Fold) increase of Smn protein (Smn protein): *** (a fold increase between >1.35 and ≦1.5 is indicated by three stars (***))
melting point: 206 to 208 °C

C[C@H]1CN(c2ccc3cc(-c4cccc(OC(F)F)c4)oc(=O)c3c2)CCN1 [Cpd 53, 3-[3-(difluoromethoxy)phenyl]-7-[(3S)-3-methylpiperazin-1-yl]-1H-isochromen-1-one]
EC (1.5-fold) [1]: 0.3 to 1 µM
maximum fold (Fold) increase of Smn protein (Smn protein): ** (a fold increase between >1.2 and ≦1.35 is indicated by two stars (**))
melting point: 132 to 134 °C

C[C@H]1CN(c2ccc3cc(-c4ccc(OC(F)F)cc4)oc(=O)c3c2)CCN1 [Cpd 54, 3-[4-(difluoromethoxy)phenyl]-7-[(3S)-3-methylpiperazin-1-yl]-1H-isochromen-1-one]
EC (1.5-fold) [1]: 0.3 to 1 µM
maximum fold (Fold) increase of Smn protein (Smn protein): * (A maximum fold increase of ≦1.2 is indicated by one star (*))
melting point: 121 to 123 °C

C[C@H]1CN(c2ccc3cc(-c4cn5ccsc5n4)oc(=O)c3c2)CCN1 [Cpd 55, 3-(imidazo[2,1-b][1,3]thiazol-6-yl)-7-[(3S)-3-methylpiperazin-1-yl]-1H-isochromen-1-one]
EC (1.5-fold) [1]: 0.1 to 0.3 µM
maximum fold (Fold) increase of Smn protein (Smn protein): ** (a fold increase between >1.2 and ≦1.35 is indicated by two stars (**))
melting point: 340 to 342 °C

Cc1cn2cc(-c3cc4ccc(N5CCNCC5)cc4c(=O)o3)nc2cn1 [Cpd 56, 3-(6-methylimidazo[1,2-a]pyrazin-2-yl)-7-(piperazin-1-yl)-1H-isochromen-1-one]
EC (1.5-fold) [1]: ≤ 0.1 µM
EC1.5x for Smn protein expression (Smn protein): **** (an EC1.5×≦0.3 nM is indicated by four stars (****))
maximum fold (Fold) increase of Smn protein (Smn protein): ***** (a fold increase >1.65 is indicated by five stars (*****))
melting point: 225 to 227 °C

Cc1cn2cc(-c3cc4ccc(N5CCN[C@@H](C)C5)cc4c(=O)o3)nc2cn1 [Cpd 57, 3-(6-methylimidazo[1,2-a]pyrazin-2-yl)-7-[(3S)-3-methylpiperazin-1-yl]-1H-isochromen-1-one]
EC (1.5-fold) [1]: ≤ 0.1 µM
EC1.5x for Smn protein expression (Smn protein): **** (an EC1.5×≦0.3 nM is indicated by four stars (****))
maximum fold (Fold) increase of Smn protein (Smn protein): ***** (a fold increase >1.65 is indicated by five stars (*****))
melting point: 242 to 244 °C

Cc1cn2cc(-c3cc4ccc(N5C[C@@H](C)N[C@@H](C)C5)cc4c(=O)o3)nc2cn1 [Cpd 58, 7-[(3R,5S)-3,5-dimethylpiperazin-1-yl]-3-(6-methylimidazo[1,2-a]pyrazin-2-yl)-1H-isochromen-1-one]
EC (1.5-fold) [1]: ≤ 0.1 µM
EC1.5x for Smn protein expression (Smn protein): **** (an EC1.5×≦0.3 nM is indicated by four stars (****))
maximum fold (Fold) increase of Smn protein (Smn protein): ***** (a fold increase >1.65 is indicated by five stars (*****))
melting point: 279 to 281 °C

O=c1oc(-c2cn3cccc(Cl)c3n2)cc2ccc(N3CCNCC3)cc12 [Cpd 59, 3-(8-chloroimidazo[1,2-a]pyridin-2-yl)-7-(piperazin-1-yl)-1H-isochromen-1-one]
EC (1.5-fold) [1]: 1 to 3 µM
maximum fold (Fold) increase of Smn protein (Smn protein): ** (a fold increase between >1.2 and ≦1.35 is indicated by two stars (**))
melting point: 343 to 345 °C
